Where two headings read alike, the source gives them in different places.
How the values were obtained:
[1] = test system: IRF-Lucia luciferase reporter (ISRE) in J774-Dual cells; test: J774-Dual IRF-Lucia luciferase reporter assay (ISRE activation); format: cell-based, mouse
How it was run: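 Eight-point dose-response in J774-Dual mouse macrophage-like cells gave EC50, plus CC50 by in-plate CellTiter-Glo, and ISRE:NF-κB ratios. Cells plated 24 h at 37 °C, 5% CO2 without differentiation; supernatant Lucia luciferase and SEAP measured with QUANTI-Luc and QUANTI-Blue.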

[2] = test system: IRF-Lucia luciferase reporter (ISRE) in THP1-Dual cells; test: THP1-Dual IRF-Lucia luciferase reporter assay (ISRE activation); format: cell-based, human; details: for EC50: read-out: THP1 IRF EC50; for IRF3 and NF-κB reporter activity: human THP1 and mouse J774 macrophage-like cells
How it was run: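 Supernatant luminescence from the ISG54/ISRE-driven Lucia reporter was measured after 24 h exposure to 10 μM compound (LPS 313 ng/mL in control wells).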

[3] = Mus musculus, J774, Mouse Reporter Cell Line, 8-point dose response, read-out: J774 IRF EC50
[4] = Homo sapiens, THP1-Dual, Human Reporter Cell Line, 8-point dose response
[5] = Mouse Reporter Cell Line J774, at peak
[6] = Mus musculus, J774, Mouse Reporter Cell Line J774, read-out: J774 IRF EC50
[7] = Homo sapiens, THP1-Dual, Human Reporter Cell Line THP1

Row | SMILES | EC50 [1, 3] [µM] | EC50 [2, 4] [µM] | EC50 [1, 6] [µM] | EC50 [2, 7] [µM] | J774 IRF % activation at peak ([1]; Mouse Reporter Cell Line) [%] | J774 IRF % activation at peak [1, 5] [%] | also measured
1 | Cc1ccc2c(=O)c3cccc(CC(=O)O)c3oc2c1C [DMXAA, 5,6-dimethylxanthenone-4-acetic acid] | – | – | – | – | – | – | EC50 ([1]; Mus musculus, J774-Dual control compound, read-out: EC50 ISRE activation): 24 µM; ISRE activation in THP1-Dual cell line ([2]; THP1-Dual): not effective
2 | O=C(Nc1ccc(N2CCN(C(=O)c3cccs3)CC2)cc1)c1ccc(Cl)c2ccccc12 [NA13] | 0.821 | ~1.55 | – | – | 3.434 | – | –
3 | CCOc1cccc(COc2ccc(C(=O)Nc3ccc(N4CCN(C(=O)c5cccs5)CC4)cc3)cc2)c1 [NA42, 4-((3-ethoxybenzyl)oxy)-N-(4-(4-(thiophene-2-carbonyl)piperazin-1-yl)phenyl)benzamide] | 3.9 | 3.6 | – | – | 191.2 | – | –
4 | O=C(Nc1ccc(N2CCN(C(=O)c3ccsc3)CC2)cc1)c1ccc(OCc2ccccc2)nc1 [NA-1] | ~3.06 | 1.94 | – | – | 67.54 | – | –
5 | O=C(Nc1ccc(N2CCN(C(=O)c3cccs3)CC2)cc1)c1ccc(Br)cc1 [NA-14] | 5.23 | ~2.62 | – | – | 4.471 | – | –
6 | Cc1c(Br)ccc(C(=O)Nc2ccc(N3CCN(C(=O)c4cccs4)CC3)cc2)c1C [NA-16] | – | 6.46 | – | – | – | – | –
7 | O=C(Nc1ccc(N2CCN(C(=O)c3cccs3)CC2)cc1)c1sc2cc(Cl)ccc2c1Cl [NA-20] | 4.19 | 1.94 | – | – | 29.98 | – | –
8 | O=C(Nc1ccc(N2CCN(C(=O)c3cccs3)CC2)cc1)c1cccc2c(Br)cccc12 [NA-21, 5-bromo-N-{4-[4-(2-thienylcarbonyl)-1-piperazinyl]phenyl}-1-naphthamide] | 1.01 | 0.73 | – | – | 38.86 | – | –
9 | O=C(Nc1ccc(N2CCN(C(=O)c3cccs3)CC2)cc1)c1ccc(OCc2ccc(F)c(F)c2F)cc1 [NA-23] | – | 1.71 | – | – | – | – | –
10 | COc1cccc(COc2ccc(C(=O)Nc3ccc(N4CCN(C(=O)c5cccs5)CC4)cc3)cc2)c1 [NA-24, 4-((3-methoxybenzyl)oxy)-N-(4-(4-(thiophene-2-carbonyl)piperazin-1-yl)phenyl)benzamide] | 4.67 | 3.14 | – | – | 111.2 | – | –
11 | Cc1ccc(COc2ccc(C(=O)Nc3ccc(N4CCN(C(=O)c5cccs5)CC4)cc3)cc2)cc1 [NA-25] | 4.38 | 3.29 | – | – | 18.01 | – | –
12 | CCOc1ccc(C(=O)Nc2ccc(N3CCN(C(=O)c4cccs4)CC3)cc2)cc1Br [NA-30] | ~3.33 | 2.68 | – | – | 2.95 | – | –
13 | O=C(Nc1ccc(N2CCN(C(=O)c3cccs3)CC2)cc1)c1ccc(-c2cc3ccccc3oc2=O)cc1 [NA-32] | 11.9 | 1.43 | – | – | 77.58 | – | –
14 | O=C(Nc1ccc(N2CCN(C(=O)c3cccs3)CC2)cc1)c1ccc(OCc2cccc(Cl)c2)cc1 [NA-33] | 2.64 | 1.84 | – | – | 15.46 | – | –
15 | O=C(Nc1ccc(N2CCN(C(=O)c3cccs3)CC2)cc1)c1ccc(-c2ccncc2)cc1 [NA-38] | ~10.2 | ~11.2 | – | – | 2.98 | – | –
16 | O=C(Nc1ccc(N2CCN(C(=O)c3cccs3)CC2)cc1)c1ccc(-c2ccccc2)cn1 [NA-39] | 9.81 | 7.02 | – | – | 77.89 | – | –
17 | O=C(Nc1ccc(N2CCN(C(=O)c3cccs3)CC2)cc1)c1ccc(-c2ccccc2)nc1 [NA-41] | 10.6 | 10.7 | – | – | 37.71 | – | –
18 | CCOc1cccc(COc2ccc(C(=O)Nc3ccc(N4CCN(C(=O)c5cccs5)CC4)cc3)cc2)c1 [NA-42, 4-((3-ethoxybenzyl)oxy)-N-(4-(4-(thiophene-2-carbonyl)piperazin-1-yl)phenyl)benzamide] | – | – | – | – | – | – | IRF3 and NF-κB reporter activity ([2]; 8-point dose response): high IRF3 activity and low off-target NF-κB activation
19 | COc1ccc(C(=O)Nc2ccc(OCc3ccccc3)cc2)cc1[N+](=O)[O-] [NA-44] | 7.38 | 4.45 | – | – | 2.085 | – | –
20 | O=C(Nc1ccc(N2CCN(C(=O)c3cccs3)CC2)cc1)c1ccc(OCc2ccccc2)nc1 [NA-59] | 3.09 | ~2.53 | – | – | 150.5 | – | –
21 | COc1ccc(C(=O)Nc2cc(-c3nc4cc(C)c(C)cc4o3)ccc2C)cc1[N+](=O)[O-] [ND13, N-(5-(5,6-dimethylbenzo[d]oxazol-2-yl)-2-methylphenyl)-4-methoxy-3-nitrobenzamide] | – | – | 0.956 | 0.975 | – | 220.5 | –
22 | COc1ccc(C(=O)Nc2cc(-c3nc4cc(C)c(C)cc4o3)ccc2C)cc1[N+](=O)[O-] [ND-13, N-(5-(5,6-dimethylbenzo[d]oxazol-2-yl)-2-methylphenyl)-4-methoxy-3-nitrobenzamide] | – | – | – | – | – | – | IRF3 and NF-κB reporter activity ([2]; 8-point dose response): high IRF3 activity and low off-target NF-κB activation
23 | COc1ccc(C(=O)Nc2cc(-c3nc4ccccc4s3)ccc2C)cc1[N+](=O)[O-] [ND-38] | – | – | – | – | – | 114 | EC50 ([1]; Mouse Reporter Cell Line J774, read-out: J774 IRF EC50): 7.67 µM; EC50 ([2]; Human Reporter Cell Line THP1): 4.29 µM

More lines, main results first:

Row | EC50 [1, 3] [µM] | EC50 [2, 4] [µM] | EC50 [1, 6] [µM] | EC50 [2, 7] [µM] | SMILES | J774 IRF % activation at peak ([1]; Mouse Reporter Cell Line) [%] | J774 IRF % activation at peak [1, 5] [%] | also measured
24 | – | – | 6.57 | 2.53 | Cc1ccc(NC(=O)c2cc(NC(=O)c3ccccc3)ccc2N2CCOCC2)cc1Cl [NB-1] | – | 54.52 | –
25 | – | – | 8.54 | ~1.57 | Cc1ccc(NC(=O)c2cc(NC(=O)Cc3ccccc3)ccc2N2CCOCC2)cc1Cl [NB-3] | – | 2.603 | –
26 | – | – | 5.67 | 4.7 | Cc1ccc(NC(=O)c2cc(NC(=O)c3cccs3)ccc2N2CCOCC2)cc1Cl [NB-8] | – | 52.86 | –
27 | – | – | 8.68 | 6.07 | Cc1ccc(NC(=O)c2cc(NC(=O)c3cccs3)ccc2N2CCOCC2)cc1 [NB-17] | – | 16.67 | –
28 | – | – | ~4.84 | 2.23 | O=C(Nc1ccc(N2CCOCC2)c(C(=O)Nc2ccc(OCc3ccccc3)cc2)c1)c1cccs1 [NB-18] | – | 2.303 | –
29 | – | – | 6.56 | 3.27 | Cc1ccc(NC(=O)c2cc(NC(=O)c3cccs3)ccc2N2CCOCC2)cc1Br [NB-23] | – | 72.79 | –
30 | 14.6 | 7.98 | – | – | Cc1cc(NC(=O)c2sc3cc(Cl)ccc3c2Cl)ccc1NC(=O)c1ccco1 [NC-2] | 4.6 | – | –
31 | – | – | 5.87 | 3.89 | COc1ccc(C(=O)Nc2cc(-c3nc4ccccc4s3)ccc2C)cc1[N+](=O)[O-] [ND52, N-[5-(1,3-benzothiazol-2-yl)-2-methylphenyl]-4-methoxy-3-nitrobenzamide] | – | 131.7 | –
32 | – | – | 8.82 | ~12.4 | COc1ccc(C(=O)Nc2nc(-c3cc4ccccc4oc3=O)cs2)cc1 [ND-1] | – | 28.40 | –
33 | – | – | 4.81 | 1.12 | COc1ccc(C(=O)Nc2cc(-c3nc4cc(C(C)C)ccc4o3)ccc2C)cc1[N+](=O)[O-] [ND-2] | – | 141.80 | –
34 | – | – | ~12.9 | 14.7 | CC(C)CC(=O)Nc1ccc2oc(-c3cccc(I)c3)nc2c1 [ND-5] | – | 12.45 | –
35 | – | – | – | 8.42 | O=C(Cc1ccc(Cl)cc1)Nc1cccc(-c2nnc(-c3ccco3)o2)c1 [ND-7] | – | – | –
36 | – | – | 3.58 | 3.12 | COc1ccc(-c2nc3cc(C(C)C)ccc3o2)cc1NC(=O)c1ccc(C)c([N+](=O)[O-])c1 [ND-16] | – | 83.02 | –
37 | – | – | – | 10.6 | COc1ccc(C(=O)Nc2cccc(-c3nc4ncccc4o3)c2)cc1Br [ND-47] | – | – | –
38 | – | – | ~10.1 | 6.16 | Cc1ccc(-c2nc3ccccc3s2)cc1NC(=O)c1cccc(Cl)c1 [ND-80] | – | 26.88 | –
39 | – | – | 4.53 | 32.1 | ClCCCOc1ccc(-c2nc3cc(OCCCN4CCCC4)ccc3o2)cc1 [ND-94] | – | 5.09 | –
